# Test results published in US6485746B1, “Controlled-release sedative-hypnotic compositions and methods related thereto” (Neurocrine Biosciences, Inc., priority 2000, dated 2002).
# Columns and labels:
# [1] = Plasma pharmacokinetics of NBI-34060 (half-life, volume of distribution); type: in vivo, human
# Excerpt: The mean plasma half-life of a sedative-hypnotic compound may be determined using well known techniques. Terminal half-life may be determined using standard pharmacokinetic calculations, such as those presented by Rolland and Tozer (Clinical Pharmacokinetics Concepts and Applications, 3rd. Ed., Chap. 3, 1995). in addition, software is commercially available which performs this calculation, such as the product sold under the tradename “WinNinlin™”(Prof. Ver. 1.5). […] This is estimated by linear regression analysis of the time vs. log concentration of the test compound.
# In this experiment, commercially available plasma profiling software (GastroPlus™) (Simulations Plus Inc., CA.) was used to simulate the effects of varying controlled release profiles and pharmacokinetic parameters based on in vivo plasma concentrations of NBI-34060 as measured in 12-healthy male human subjects. […] This assumed that the lower CL drug would distribute to the same tissues as the higher CL drug, so that all half-life changes were because of differences in metabolism and/or renal clearance rather than in volumes. Two oral plasma concentration-time files were created (NBI-Target-Hi.opd and NBI-Target-Lo.opd) with plasma concentration-time points serving as targets (shown as a square in FIGS. 2, 3, 4 and 5). The requirements for Tmax2 for the high target was set at 100% of Tmax1.
smiles,measurement,setting,value
"CC(=O)N(C)c1cccc(-c2ccnc3c(C(=O)c4cccs4)cnn23)c1 [NBI-34060, N-methyl-N-(3-{3-[2-thienylcarbonyl]-pyrazolo-[1,5-a]-pyrimidin-7-yl}-phenyl)acetamide]",half-life,"[1]; male, human, plasma half-life",~1.3 h
same,Vd,"[1]; one-compartment pharmacokinetic model, based on in vivo plasma concentrations in 12 healthy male human subjects",159 L
same,resulting pH,Solubility in water; pH of the solution in water at approximately 20-30 μg/ml,approximately 8.0
same,solubility,"Solubility in water; water, pH 8, water",20 to 30 µg/mL
